According to ChEMBL document CHEMBL4376854, “Investigation of the Adrenergic and Opioid Binding Affinities, Metabolic Stability, Plasma Protein Binding Properties, and Functional Effects of Selected Indole-Based Kratom Alkaloids” (J Med Chem, 2020):

How the values were obtained:
[1] = biological target: T1, Kappa-type opioid receptor (Homo sapiens, UniProt P41145); experiment: Displacement of [3H]U69,593 from human recombinant kappa opioid receptor expressed in rat RBL cell membranes incubated for 60 mins
T1 sequence (P41145 whole entry): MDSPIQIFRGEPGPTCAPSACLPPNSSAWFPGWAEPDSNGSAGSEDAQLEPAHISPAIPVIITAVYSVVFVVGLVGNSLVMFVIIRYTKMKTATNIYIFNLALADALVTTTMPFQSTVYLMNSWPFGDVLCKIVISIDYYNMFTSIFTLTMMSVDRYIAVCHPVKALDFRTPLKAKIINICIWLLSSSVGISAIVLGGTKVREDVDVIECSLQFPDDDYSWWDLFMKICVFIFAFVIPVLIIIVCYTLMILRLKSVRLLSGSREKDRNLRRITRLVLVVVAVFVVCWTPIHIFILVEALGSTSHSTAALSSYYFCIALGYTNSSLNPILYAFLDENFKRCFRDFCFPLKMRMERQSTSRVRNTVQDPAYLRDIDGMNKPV

[2] = biological target: Nociceptin receptor (Homo sapiens) (UniProt P41146); conditions: 10000 nM
Sequence of Nociceptin receptor (Homo sapiens) (P41146 whole entry): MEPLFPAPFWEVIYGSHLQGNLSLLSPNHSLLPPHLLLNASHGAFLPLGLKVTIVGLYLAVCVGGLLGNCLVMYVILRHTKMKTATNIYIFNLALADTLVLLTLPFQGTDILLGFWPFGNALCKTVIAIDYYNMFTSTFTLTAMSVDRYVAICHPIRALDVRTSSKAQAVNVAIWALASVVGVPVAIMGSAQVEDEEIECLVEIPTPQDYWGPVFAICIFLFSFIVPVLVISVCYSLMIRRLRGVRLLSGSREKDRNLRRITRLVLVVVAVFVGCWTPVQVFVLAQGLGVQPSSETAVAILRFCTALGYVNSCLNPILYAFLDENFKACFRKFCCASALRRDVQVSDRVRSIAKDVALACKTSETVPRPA

[3] = Toxicity in Sprague-Dawley rat assessed as induction of hypothermia at 0.0032 to 10 mg/kg, iv; type: organism-based; conditions: in vivo
[4] = human, microsomes, 1 h
[5] = biological target: T2, Alpha-1A adrenergic receptor (Homo sapiens) (UniProt P35348); conditions: CHO, 10000 nM
T2 sequence (whole entry): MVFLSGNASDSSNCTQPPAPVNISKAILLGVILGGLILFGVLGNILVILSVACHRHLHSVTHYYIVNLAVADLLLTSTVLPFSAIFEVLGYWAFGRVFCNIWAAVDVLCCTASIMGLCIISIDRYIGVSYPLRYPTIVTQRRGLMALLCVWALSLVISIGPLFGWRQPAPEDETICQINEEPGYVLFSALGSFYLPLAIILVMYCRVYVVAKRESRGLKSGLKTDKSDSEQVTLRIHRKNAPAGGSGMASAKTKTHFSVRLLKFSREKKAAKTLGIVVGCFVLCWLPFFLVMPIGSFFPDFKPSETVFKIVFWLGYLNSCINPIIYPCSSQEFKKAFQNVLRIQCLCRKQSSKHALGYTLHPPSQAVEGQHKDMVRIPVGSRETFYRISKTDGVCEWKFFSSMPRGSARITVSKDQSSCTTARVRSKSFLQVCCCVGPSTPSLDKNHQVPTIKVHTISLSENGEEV

[6] = biological target: T1, Kappa-type opioid receptor; conditions: 100 nM
[7] = biological target: T3, Delta-type opioid receptor (Homo sapiens, UniProt P41143); experiment: Displacement of [3H]DADLE from human recombinant delta opioid receptor expressed in rat Chem-1 (RBL) cell membranes at 100 nM incubated for 60 mins relative to control
T3 sequence (P41143 whole entry): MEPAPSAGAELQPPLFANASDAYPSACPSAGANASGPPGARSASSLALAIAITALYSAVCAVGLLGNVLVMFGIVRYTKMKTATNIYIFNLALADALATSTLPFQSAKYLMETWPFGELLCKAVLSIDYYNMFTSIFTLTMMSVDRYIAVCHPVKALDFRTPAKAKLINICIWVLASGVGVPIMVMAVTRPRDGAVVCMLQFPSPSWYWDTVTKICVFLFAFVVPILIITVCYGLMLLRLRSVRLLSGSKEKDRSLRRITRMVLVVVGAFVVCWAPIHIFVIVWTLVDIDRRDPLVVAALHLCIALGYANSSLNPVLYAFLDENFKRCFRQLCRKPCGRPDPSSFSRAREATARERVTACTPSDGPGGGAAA

[8] = human, plasma, 1 µM
[9] = biological target: T4, Alpha-2A adrenergic receptor (Homo sapiens) (UniProt P08913); conditions: CHO, 10000 nM
T4 sequence (whole entry): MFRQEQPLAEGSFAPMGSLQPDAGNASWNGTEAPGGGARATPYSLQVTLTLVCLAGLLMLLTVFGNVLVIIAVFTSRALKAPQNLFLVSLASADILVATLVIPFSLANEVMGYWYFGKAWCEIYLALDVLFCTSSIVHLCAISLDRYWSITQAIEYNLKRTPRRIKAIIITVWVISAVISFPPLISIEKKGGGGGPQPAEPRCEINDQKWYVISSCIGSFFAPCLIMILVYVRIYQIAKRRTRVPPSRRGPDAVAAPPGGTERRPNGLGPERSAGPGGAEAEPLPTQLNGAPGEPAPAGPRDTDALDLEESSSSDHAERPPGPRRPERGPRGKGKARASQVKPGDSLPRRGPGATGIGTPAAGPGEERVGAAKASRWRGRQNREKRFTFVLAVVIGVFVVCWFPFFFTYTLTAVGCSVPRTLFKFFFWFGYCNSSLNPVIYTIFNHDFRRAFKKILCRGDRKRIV

[10] = biological target: T4, Alpha-2A adrenergic receptor (Homo sapiens); conditions: CHO, 100 nM
[11] = human, microsomes, 1 µM
[12] = biological target: T3, Delta-type opioid receptor; experiment: Displacement of [3H]DADLE from human recombinant delta opioid receptor expressed in rat Chem-1 (RBL) cell membranes at 10000 nM incubated for 60 mins relative to control
Mu-type opioid receptor = Mu-type opioid receptor (Homo sapiens, UniProt P35372); conditions: HEK293, 10000 nM
Sequence of Mu-type opioid receptor (P35372 whole entry): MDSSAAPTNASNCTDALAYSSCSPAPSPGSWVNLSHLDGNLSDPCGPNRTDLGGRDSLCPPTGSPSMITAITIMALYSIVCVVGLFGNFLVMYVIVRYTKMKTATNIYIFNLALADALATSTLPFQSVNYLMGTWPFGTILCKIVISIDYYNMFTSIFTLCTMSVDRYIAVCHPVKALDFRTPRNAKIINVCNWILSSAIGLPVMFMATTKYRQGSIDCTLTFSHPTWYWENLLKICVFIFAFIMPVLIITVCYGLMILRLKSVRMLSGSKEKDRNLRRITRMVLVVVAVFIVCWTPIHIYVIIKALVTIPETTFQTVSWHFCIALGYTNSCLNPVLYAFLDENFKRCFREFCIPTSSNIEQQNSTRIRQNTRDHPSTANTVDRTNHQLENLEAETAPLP

[13] = biological target: T5, Alpha-1D adrenergic receptor (Homo sapiens) (UniProt P25100); conditions: CHO, 100 nM
T5 sequence (whole entry): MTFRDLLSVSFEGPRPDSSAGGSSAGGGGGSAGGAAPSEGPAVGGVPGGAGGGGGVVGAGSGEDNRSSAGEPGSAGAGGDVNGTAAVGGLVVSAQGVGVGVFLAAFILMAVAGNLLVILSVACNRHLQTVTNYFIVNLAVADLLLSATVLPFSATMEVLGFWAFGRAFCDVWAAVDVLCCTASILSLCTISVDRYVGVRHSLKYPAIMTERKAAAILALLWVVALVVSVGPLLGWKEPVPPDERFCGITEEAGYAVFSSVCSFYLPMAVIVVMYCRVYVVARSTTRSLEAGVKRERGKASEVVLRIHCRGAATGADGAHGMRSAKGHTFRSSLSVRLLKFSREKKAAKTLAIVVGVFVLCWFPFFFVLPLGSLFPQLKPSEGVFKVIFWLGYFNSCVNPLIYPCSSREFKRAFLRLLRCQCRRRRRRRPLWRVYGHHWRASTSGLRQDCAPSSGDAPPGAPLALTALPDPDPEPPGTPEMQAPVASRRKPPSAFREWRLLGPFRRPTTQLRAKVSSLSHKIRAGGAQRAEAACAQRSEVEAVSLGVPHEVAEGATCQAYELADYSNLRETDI

[14] = biological target: T2, Alpha-1A adrenergic receptor (Homo sapiens); conditions: CHO, 100 nM
Rattus norvegicus = experiment: Antinociceptive activity in Sprague-Dawley rat dosed intravenously using cumulative dosing every 5 mins until rat maxed-out on hot plate by hot plate test relative to control; type: functional
[15] = biological target: T6, Alpha-1B adrenergic receptor (Homo sapiens) (UniProt P35368); conditions: CHO, 10000 nM
T6 sequence (whole entry): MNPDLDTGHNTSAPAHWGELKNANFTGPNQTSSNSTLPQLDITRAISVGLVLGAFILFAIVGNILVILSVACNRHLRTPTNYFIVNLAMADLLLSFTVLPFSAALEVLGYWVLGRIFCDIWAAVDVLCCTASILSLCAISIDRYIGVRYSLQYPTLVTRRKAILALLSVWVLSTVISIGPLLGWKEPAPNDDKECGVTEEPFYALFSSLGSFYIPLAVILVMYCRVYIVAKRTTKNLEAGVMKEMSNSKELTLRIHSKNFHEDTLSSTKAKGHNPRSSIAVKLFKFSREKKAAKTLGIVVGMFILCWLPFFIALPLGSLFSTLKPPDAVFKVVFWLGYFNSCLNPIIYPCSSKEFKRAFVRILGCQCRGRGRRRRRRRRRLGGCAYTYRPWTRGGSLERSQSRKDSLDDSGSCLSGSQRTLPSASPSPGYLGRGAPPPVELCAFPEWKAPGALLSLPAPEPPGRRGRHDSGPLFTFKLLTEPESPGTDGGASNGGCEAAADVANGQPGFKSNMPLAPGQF

[16] = biological target: T5, Alpha-1D adrenergic receptor (Homo sapiens); conditions: CHO, 10000 nM

Row | Structure (SMILES) | Ki [1] [nM] | inhibition [2] [%] | Activity [3] | Kel [4] [min⁻¹] | inhibition [5] [%] | inhibition [6] [%] | inhibition [7] [%] | Fu [8] | inhibition [9] [%] | inhibition [10] [%] | Fu [11] | inhibition [12] [%] | inhibition (Mu-type opioid receptor) [%] | inhibition [13] [%] | inhibition [14] [%] | Emax (Rattus norvegicus; Rattus norvegicus, Sprague-Dawley, iv, 5 min) [%] | inhibition [15] [%] | inhibition [16] [%] | MPE (Rattus norvegicus) [%]
1 | CC[C@@H]1CN2CCc3c([nH]c4cccc(OC)c34)[C@@H]2C[C@@H]1/C(=C\OC)C(=O)OC | 198 | 40.8 | Non-Toxic | 0.0347 | 83.5 | 25.2 | 0.4 | 0.02 | 40.4 | -8 | 0.307 | 18.3 | 93.7 | -2.1 | 13.2 | 17.3 | 40.3 | 57.9 | –
2 | CC[C@@H]1CN2CCc3c([nH]c4cccc(OC)c34)[C@H]2C[C@@H]1/C(=C\OC)C(=O)OC | 116 | 31.8 | Toxic | 0.0166 | 81.1 | 61.9 | 0.6 | 0.01 | 73.1 | 7 | 0.276 | 69.2 | 98 | 6.3 | 16.8 | – | 95.6 | 70.5 | 100
